Reference: patent US4798828A, “Heterocyclic-methylene-penems” (Beecham Group p.l.c., priority 1984, dated 1989)
Converted amounts (≈) assume the structure as drawn.

Experiments:
Assay in all cases: Antibacterial activity of compounds alone (MIC)
Type in all cases: cell-based
Details in all cases: compound alone, amoxycillin: typical MIC's from a number of tests, read-out: MIC (minimum inhibitory concentration)
[1] = test system: C freundii Mantio
Description: (§1) The following Table 1 summaries the antibacterial activity of selected compounds according to the invention (which are identified by compound numbers as given in the examples) against selected micro-organisms and, for comparison purposes, also gives the same data for amoxycillin. The data is given in the form of MIC values (minimum inhibitory concentration)in μg/ml.

[2] = test system: E aerogenes N1
Description: as §1

[3] = test system: E coli JT410
Description: as §1

[4] = test system: P mirabilis C889
Description: as §1

SMILES	MIC [1] [µg/mL]	MIC [2] [µg/mL]	MIC [3] [µg/mL]	MIC [4] [µg/mL]
O=C(O)C1=CSC2/C(=C\c3ccns3)C(=O)N12 (racemic) [Compound 11, (5RS) Sodium (Z)-6-(5-Isothiazolylmethylene)penem-3-carboxylate]	> 100	> 100	> 100	> 100
O=C(O)C1=CSC2/C(=C\c3ccon3)C(=O)N12 (racemic) [Compound 43, (5RS) Sodium (Z)-6-(Isoxazol-3-ylmethylene)penem-3-carboxylate]	256	> 512	> 512	256
CC1(C)S[C@@H]2[C@H](NC(=O)[C@H](N)c3ccc(O)cc3)C(=O)N2[C@H]1C(=O)O [Amoxycillin, reference compound]	> 512	512 (≈ 1400 µM)	256 (≈ 701 µM)	> 512

Further lines, results first:

MIC [1] [µg/mL]	MIC [2] [µg/mL]	MIC [3] [µg/mL]	MIC [4] [µg/mL]	SMILES
128	128	64	128	Cn1cc(/C=C2/C(=O)N3C(C(=O)O)=CSC23)nn1 (racemic) [88(a), (5RS) Sodium (Z)-6-(1-methyl-1,2,3-triazol-4-yl-methylene)penem-3-carboxylate]
> 512	> 512	> 512	256	Cc1nc(/C=C2/C(=O)N3C(C(=O)O)=CSC23)co1 (racemic) [Compound 78, (5RS) Sodium (Z)-6-[(2-methyloxazol-4-yl)methylene]penem-3-carboxylate]
256	512	512	256	Cn1ccc(/C=C2/C(=O)N3C(C(=O)O)=CSC23)n1 (racemic) [Compound 169, (5RS) Sodium (Z)-6-(1-methylpyrazol-3-ylmethylene)penem-3-carboxylate]
64	256	32	64	Cn1cc(/C=C2/C(=O)N3C(C(=O)O)=CS[C@H]23)nn1 [Compound 158, (5R) Sodium (Z)-6-(1-methyl-1,2,3-triazol-4-ylmethylene) penem-3-carboxylate]
